Consider 13 compounds from US9096515B2, “Methods of using cycloalkylmethylamine derivatives” (Reviva Pharmaceuticals, Inc., priority 2010, dated 2015).

Where two headings read alike, the source gives them in different places. Bounds are passed on as bounds.

Data set [1] concerns the target human recombinant transporter protein norepinephrine (NET) (Homo sapiens (Human), UniProt P23975). Kind of data set: radioligand binding assay, norepinephrine transporter. As for the experimental part:
(§1) The monoamine transporters inhibitory activities of selected compounds cycloalkylmethylamine derivatives comprising Formula (I) are reported herein. The compounds were evaluated using well established radioligand binding assays protocols (Galli, A. et al., J. Exp. Biol. 1995, 198, 2197-2212; Giros, B. et al., Trends Pharmcol. Sci. 1993, 14, 43-49; Gu, H. et al., J. Biol. Chem. 1994, 269(10), 7124-7130; Shearman, L. P. et al, Am. J. Physiol., 1998, 275(6 Pt 1), C1621-1629; Wolf, W. A. et al., J. Biol. Chem. 1992, 267(29), 20820-20825). The human recombinant transporter proteins dopamine (DAT), norepinephrine (NET) and serotonin (SERT) were selected for the in vitro assays. The radioligand binding assays were carried out at 11 different test concentrations […] to 1 μM.
(§2) The assays were carried out in duplicates and the quantitative data are reported as Ki in the TABLE 1.

Data set [2] concerns the target human recombinant transporter protein serotonin (SERT) (Homo sapiens (Human), UniProt P31645). Kind of data set: radioligand binding assay, serotonin transporter. The method, then:
as §1, §2

Data set [3] addresses human recombinant transporter protein dopamine (DAT) (Homo sapiens (Human), UniProt Q01959). Kind of data set: radioligand binding assay, dopamine transporter. The method, then: as §1, §2
For data set [4] the following is noted: active metabolites of sibutramine; background statement; cited from earlier work.
Where [5] appears, read: human recombinant NET, 11 test concentrations 0.1 nm to 1 μM, duplicates, read-out: NET Ki.
The mark [6] stands for this setting: human recombinant SERT, 11 test concentrations 0.1 nm to 1 μM, duplicates, read-out: SERT Ki.
Where [7] appears, read: human recombinant DAT, 11 test concentrations 0.1 nm to 1 μM, duplicates, read-out: DAT Ki.

human recombinant transporter protein norepinephrine (NET), sequence (P23975 whole entry): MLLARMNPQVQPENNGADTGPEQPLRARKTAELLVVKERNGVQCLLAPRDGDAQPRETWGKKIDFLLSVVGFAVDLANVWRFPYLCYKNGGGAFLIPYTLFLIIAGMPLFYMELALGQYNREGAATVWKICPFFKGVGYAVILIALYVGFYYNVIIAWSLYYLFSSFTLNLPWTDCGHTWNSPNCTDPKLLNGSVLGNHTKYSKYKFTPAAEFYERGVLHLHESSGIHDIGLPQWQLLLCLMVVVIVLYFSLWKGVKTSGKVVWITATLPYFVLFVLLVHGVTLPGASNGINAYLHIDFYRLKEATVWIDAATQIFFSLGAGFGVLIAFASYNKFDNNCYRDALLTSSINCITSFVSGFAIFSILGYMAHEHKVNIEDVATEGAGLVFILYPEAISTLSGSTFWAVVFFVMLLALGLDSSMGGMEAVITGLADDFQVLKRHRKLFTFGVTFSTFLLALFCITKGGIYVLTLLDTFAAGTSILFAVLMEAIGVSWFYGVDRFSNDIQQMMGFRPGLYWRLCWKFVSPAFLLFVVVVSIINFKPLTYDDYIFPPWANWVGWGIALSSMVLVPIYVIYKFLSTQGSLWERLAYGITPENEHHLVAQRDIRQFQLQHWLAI
human recombinant transporter protein dopamine (DAT), sequence (Q01959 whole entry): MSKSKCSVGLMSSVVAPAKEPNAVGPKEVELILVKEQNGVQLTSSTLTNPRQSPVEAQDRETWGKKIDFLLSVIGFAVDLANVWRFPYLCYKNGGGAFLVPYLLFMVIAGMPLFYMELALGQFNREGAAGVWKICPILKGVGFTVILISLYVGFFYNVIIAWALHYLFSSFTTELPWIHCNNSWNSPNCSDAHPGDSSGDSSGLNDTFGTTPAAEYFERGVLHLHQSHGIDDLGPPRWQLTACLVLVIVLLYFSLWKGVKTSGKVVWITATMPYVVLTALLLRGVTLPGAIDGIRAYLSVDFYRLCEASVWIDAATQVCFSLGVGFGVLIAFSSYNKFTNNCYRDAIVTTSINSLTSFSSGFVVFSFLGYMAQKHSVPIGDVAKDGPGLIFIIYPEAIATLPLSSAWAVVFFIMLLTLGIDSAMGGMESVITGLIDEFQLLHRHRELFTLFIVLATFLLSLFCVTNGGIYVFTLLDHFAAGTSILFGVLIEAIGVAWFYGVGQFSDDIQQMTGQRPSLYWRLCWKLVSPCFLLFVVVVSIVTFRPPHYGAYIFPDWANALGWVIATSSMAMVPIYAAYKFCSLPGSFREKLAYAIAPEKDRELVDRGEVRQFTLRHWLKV

For `CCOc1ccc(C2(C(CC(C)C)NCCOC(=O)CC)CCC2)cc1` (centres unmarked) [Compound 12u, 2-((1-(1-(4-Ethoxyphenyl)cyclobutyl)-3-methylbutyl)amino)ethyl propionate], the results for the Ki in data set [1] (setting [5]), in data set [2] (setting [6]) and in data set [3] (setting [7]) were 2.34 µM, 0.0057 µM and 0.0804 µM, respectively.

With “2-((1-(1-(3,4-Dichlorophenyl)cyclobutyl)-3-methylbutyl)amino)ethyl propionate [Compound 12q]”, the results for the Ki in data set [1] (setting [5]), in data set [2] (setting [6]) and in data set [3] (setting [7]) were 0.0382 µM, 0.0106 µM and 0.0072 µM, respectively.

Take `CCOC(=O)NCCNC(CC(C)C)C1(c2ccc(OCC)cc2)CCC1` (centres unmarked) [Compound 21b, Ethyl (2-((1-(1-(4-ethoxyphenyl)cyclobutyl)-3-methylbutyl)amino)ethyl)carbamate]: the results for the Ki in data set [1], in data set [2] and in data set [3] were 1.92 µM, 0.002 µM and 0.159 µM, respectively.

As to `CCOc1ccc(C2(C[C@@H](C)CCNCCCC(N)=O)CCC2)cc1` (single isomer, unassigned) [33b -(R)-Isomer], the Ki in data set [1] (setting [5]) came to 6.52 µM; in data set [2] (setting [6]), 0.00279 µM; in data set [3] (setting [7]), 0.13 µM.

For the compound `CC(C)CC(N)C1(c2ccc(Cl)cc2)CCC1` (centres unmarked) [Compound M2], the elimination half-life in data set [4] was 16 h.

Regarding `CCOC(=O)NCCNC(CC(C)C)C1(c2ccc(Cl)c(Cl)c2)CCC1` (centres unmarked) [Compound 21a, Ethyl (2-((1-(1-(3,4-dichlorophenyl)cyclobutyl)-3-methylbutyl)amino)ethyl)carbamate], the Ki came to 0.0134 µM in data set [1], 0.001 µM in data set [2] (setting [6]) and 0.0384 µM in data set [3].

`CCCC(=O)NCCNC(CC(C)C)C1(c2ccc(OCC)cc2)CCC1` (centres unmarked) [Compound 31b, N-(2-((1-(1-(4-Ethoxyphenyl)cyclobutyl)-3-methylbutyl)amino)ethyl)butyramide]: the inhibitory constant (Ki) in data set [1] is 4.73 µM; in data set [2] it was 0.025 µM; in data set [3] (setting [7]), 0.251 µM.

As to `CNC(CC(C)C)C1(c2ccc(Cl)cc2)CCC1` (centres unmarked) [Compound M1], the elimination half-life in data set [4] was 14 h.

As for `CCOc1ccc(C2(CC(C)CCNCCCC(N)=O)CCC2)cc1` (racemic) [33b -Racemic], the Ki in data set [1] (setting [5]) is above 10 µM; in data set [2] (setting [6]), 0.00549 µM; in data set [3] (setting [7]), 0.472 µM.

As for `CCOc1ccc(C2(C[C@H](C)CCNCCCC(N)=O)CCC2)cc1` (single isomer, unassigned) [33b -(S)-Isomer], the inhibition constant (Ki) in data set [1] (setting [5]) came out at 1.09 µM; in data set [2] (setting [6]), 0.329 µM; in data set [3] (setting [7]), 4.03 µM.

`CCCC(=O)NCCNC(CC(C)C)C1(c2ccc(Cl)c(Cl)c2)CCC1` (centres unmarked) [Compound 31a, N-(2-((1-(1-(3,4-Dichlorophenyl)cyclobutyl)-3-methylbutyl)amino)ethyl)butyramide]: the Ki in data set [1] stood at 0.0777 µM; in data set [2] (setting [6]) it was 0.0278 µM; in data set [3], 0.0527 µM.

On to `CC(CCNCCCC(N)=O)CC1(c2ccc(Cl)c(Cl)c2)CCC1` (racemic) [33a -Racemic], for which the values for the Ki in data set [1] (setting [5]), in data set [2] (setting [6]) and in data set [3] (setting [7]) were 0.0501 µM, 0.0081 µM and 0.0015 µM, respectively.

With `C[C@@H](CCNCCCC(N)=O)CC1(c2ccc(Cl)c(Cl)c2)CCC1` (single isomer, unassigned) [33a -(R)-Isomer], the Ki in data set [1] (setting [5]) worked out at 0.0303 µM; in data set [2] (setting [6]), 0.0023 µM; in data set [3] (setting [7]), 0.00091 µM.

What is called Ki is a dissociation constant, usually derived from enzyme kinetics or from competition with a known ligand.
